PubChem BioAssay (NCI)
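Briefly, cells in 96-well plates were exposed to five compound concentrations for 48 h, and endpoints were estimated by linear interpolation. TGI: concentration producing complete growth inhibition.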

How the values were obtained:
Experiment in all cases: DTP human tumour cell line panel, 48 h
[1] = system: NCI-H226 lung
[2] = system: K-562 leukemia
[3] = system: HCT-116 colon
[4] = system: HS 578T breast
[5] = system: SN12C renal
[6] = system: OVCAR-3 ovarian
[7] = system: MALME-3M melanoma
[8] = system: MOLT-4 leukemia
[9] = system: U251 CNS
[10] = system: 786-0 renal
[11] = system: MDA-MB-435
[12] = system: SW-620 colon
[13] = system: UO-31 renal
[14] = system: MDA-N
[15] = system: HL-60(TB) leukemia
[16] = system: HCT-15 colon
[17] = system: M14 melanoma

Measured: TGI

CSc1ncc2c(C#N)c3ccccn3c(=O)c2n1
> 100 µM: all assays above

CCCC(=O)n1[nH]c(=O)n(C(C)(C)C)c1=O
> 100 µM: all assays above

C[C@]12CC[C@H]3[C@@H](CC=C4C[C@@H](O)CC[C@@]43C)[C@@H]1C[C@H](N1CCOCC1)[C@@H]2O
> 100 µM: all assays above
